The target of this experiment is T1, katalytischen Domäne der humanen Kollagenase -3(MMP-13) (Homo sapiens, UniProt P45452).
T1 construct: Die Enzymlösung enthält 1,67 µg/mL der Enzymdomäne; purchased INVITEK, Berlin 30100 803
In words: Enzymatic activity of the catalytic domain of human collagenase-3 (MMP-13), fluorogenic substrate. The experiment is classed as biochemical.

Like-named read-outs stand apart in the source and are kept apart here.

Experimental: Aktivierung des Proenzyms: 2 Volumenanteile Proenzym werden mit 1 Volumenanteil APMA-Lösung bei 37 °C für 1,5 Stunden inkubiert. Die APMA-Lösung wird aus einer 10 mmol/L p-Aminophenyl-Mercuric Acetate Lösung in 0,1 mmol/L NaOH durch Verdünnen mit 3 Volumenteile Tris/HCl Puffer pH7,5 (siehe unten) hergestellt. Der pH-Wert wird durch Zugabe von 1 mmol/L HCl zwischen 7;0 und 7,5 eingestellt. Nach der Aktivierung des Enzyms wird dieses mit dem Tris/HCl Puffer auf eine Konzentration von 1,67 µg/mL verdünnt.
Zur Messung der Enzymaktivität werden 10 µL Enzymlösung mit 10 µL einer 3%igen (v/v) gepufferten Dimethylsulfoxid-Lösung (Reaktion 1) für.15 Minuten inkubiert. Zur Messung der Enzyminhibitoraktivität werden 10 µL Enzymlösung mit 10 µL einer 3%igen (v/v) gepufferten Dimethylsulfoxid-Lösung, die den Enzyminhibitor enthält, inkubiert (Reaktion 2).
Die Enzymaktivität wird dargestellt als Extinktionszunahme/Minute. […] Die Pufferlösung enthält 0,05% Brij (Sigma, Deisenhofen, Deutschland) sowie 0,1 mol/L Tris/HCI, 0,1 mol/L NaCI, 0,01 mol/L CaCl2 (pH=7,5). Die Enzymlösung enthält 1,67 µg/mL der Enzymdomäne. Die Substratlösung enthält 0,75 mmol/L des fluorogenen Substrates (7-Methoxycoumarin-4-yl)acetyl-Pro-Leu-Gly-Leu-3-(2',4'-dinitrophenyl)-L-2,3-diaminopropionyl-Ala-Arg-NHz (Bachem, Heidelberg, Deutschland).

Turning to `O=C(NCc1ccccc1)c1cc(C(=O)NCc2ccccc2)ncn1` [Beispiel 1, Pyrimidin-4,6-dicarbonsäure-dibenzylamid], under “catalytic domain, APMA-activated pro-enzyme, Tris/HCl buffer pH 7,5, read-out: IC50 MMP13”, the IC50 was 0.4 µM.

In the case of `CCNC(=O)c1cc(C(=O)NCC)ncn1` [Pyrimidin-4,6-dicarbonsäurediethylamid], the IC50 (comparative example, same method as Table 4, read-out: IC50-Wertes für die Inhibition der humanen Kollagenase -3 (MMP-13)) was 90 µM.

The values are drawn from patent EP1455790B1, “USE OF PYRIDINE-2,4-DICARBOXYLIC ACID DIAMIDES AND OF PYRIMIDINE-4,6-DICARBOXYLIC ACID DIAMIDES FOR SELECTIVE COLLAGENASE INHIBITION” (Sanofi-Aventis Deutschland GmbH, priority 2001, dated 2003).
